In data set [1] the target is T1, Serine/threonine-protein kinase Chk1 (Homo sapiens, UniProt O14757).
T1 sequence (O14757 whole entry): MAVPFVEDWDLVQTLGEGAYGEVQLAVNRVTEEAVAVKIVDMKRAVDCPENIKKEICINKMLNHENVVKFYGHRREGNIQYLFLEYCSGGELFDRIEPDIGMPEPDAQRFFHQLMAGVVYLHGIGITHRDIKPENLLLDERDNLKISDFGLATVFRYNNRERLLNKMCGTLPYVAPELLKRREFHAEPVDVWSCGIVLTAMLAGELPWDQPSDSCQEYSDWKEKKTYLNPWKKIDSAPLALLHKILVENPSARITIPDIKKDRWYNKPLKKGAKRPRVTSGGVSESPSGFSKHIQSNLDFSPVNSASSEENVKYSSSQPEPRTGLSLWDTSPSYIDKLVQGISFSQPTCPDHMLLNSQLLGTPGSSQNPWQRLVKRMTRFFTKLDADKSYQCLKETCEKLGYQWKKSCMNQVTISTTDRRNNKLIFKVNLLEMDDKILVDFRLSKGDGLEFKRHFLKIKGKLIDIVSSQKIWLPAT
The data set can be described thus: Inhibition of CHK1 (unknown origin) incubated for 1 hr in presence of ATP by HTRF assay. Background: In TR-FRET formats the signal depends on donor and acceptor labels being close together.

A further data set relates to MV4-11. The data set can be described thus: Antiproliferation activity against human MV4-11 cells assessed as reduction in cell viability incubated for 72 hrs by MTS assay. The format is functional, cell-based. The note with it: MV4-11, 72 h. In general terms: Tetrazolium dyes change colour on reduction, which living cells bring about.
Another data set concerns Z-138. The data set can be described thus: Antiproliferation activity against human Z138 cells assessed as reduction in cell viability incubated for 72 hrs by MTS assay. Format: functional, cell-based. The note with it: Z-138, 72 h.
The next data set has as its target hERG (KCNH2) (Homo sapiens, UniProt Q12809). The data set can be described thus: Inhibition of human ERG expressed in HEK293 cells at 10 uM by patch-clamp technique relative to control. Format: cell-based. The note with it: HEK293 cells that express hERG. (In general: The patch-clamp technique gives a direct electrical read-out from membranes.)

Here are results for 54 compounds from ChEMBL document CHEMBL4828771, “Discovery and Development of a Potent, Selective, and Orally Bioavailable CHK1 Inhibitor Candidate: 5-((4-((3-Amino-3-methylbutyl)amino)-5-(trifluoromethyl)pyrimidin-2-yl)amino)picolinonitrile” (J Med Chem, 2021).

Molecules are shown by their SMILES.

hERG (KCNH2), sequence (Q12809 whole entry): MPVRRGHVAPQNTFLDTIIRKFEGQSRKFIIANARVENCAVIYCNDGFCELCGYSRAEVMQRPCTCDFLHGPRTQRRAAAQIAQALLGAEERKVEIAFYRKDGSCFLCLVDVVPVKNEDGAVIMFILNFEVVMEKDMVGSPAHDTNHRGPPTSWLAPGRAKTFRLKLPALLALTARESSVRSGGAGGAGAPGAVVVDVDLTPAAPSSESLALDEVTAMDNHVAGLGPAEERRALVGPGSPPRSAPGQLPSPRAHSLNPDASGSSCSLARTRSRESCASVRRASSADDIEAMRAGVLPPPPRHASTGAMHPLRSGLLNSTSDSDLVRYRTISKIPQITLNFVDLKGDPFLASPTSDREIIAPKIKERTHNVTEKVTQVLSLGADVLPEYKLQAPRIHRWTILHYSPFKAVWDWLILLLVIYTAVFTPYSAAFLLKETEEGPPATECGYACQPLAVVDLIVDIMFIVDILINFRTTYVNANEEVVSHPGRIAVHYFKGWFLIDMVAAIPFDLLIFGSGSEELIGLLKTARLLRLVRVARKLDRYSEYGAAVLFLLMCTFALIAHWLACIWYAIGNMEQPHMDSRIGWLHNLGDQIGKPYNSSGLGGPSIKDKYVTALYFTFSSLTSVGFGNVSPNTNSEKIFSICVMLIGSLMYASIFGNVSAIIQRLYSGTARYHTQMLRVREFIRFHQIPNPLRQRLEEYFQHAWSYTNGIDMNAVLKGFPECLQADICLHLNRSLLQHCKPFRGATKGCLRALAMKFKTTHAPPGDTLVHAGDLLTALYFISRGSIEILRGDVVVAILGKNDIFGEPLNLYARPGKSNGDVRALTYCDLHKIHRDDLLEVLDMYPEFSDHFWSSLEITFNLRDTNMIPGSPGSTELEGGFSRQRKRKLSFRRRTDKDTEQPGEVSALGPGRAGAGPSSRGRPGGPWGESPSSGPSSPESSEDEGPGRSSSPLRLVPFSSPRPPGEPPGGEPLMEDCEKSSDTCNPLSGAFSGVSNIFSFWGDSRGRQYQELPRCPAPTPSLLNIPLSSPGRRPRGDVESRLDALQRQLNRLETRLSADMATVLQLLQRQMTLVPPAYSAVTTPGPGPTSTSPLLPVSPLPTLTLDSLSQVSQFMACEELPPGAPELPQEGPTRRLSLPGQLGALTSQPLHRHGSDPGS

Regarding `CNc1nc(Nc2cnc(C#N)c(N[C@H]3CCCNC3)c2)ncc1C(F)(F)F`, the IC50 in data set [1] amounted to 502 nM.
The same measure, in the same setting: the value for `CNc1nc(Nc2cnc(C#N)c(OC3CCN(C)CC3)c2)ncc1C(F)(F)F` was 53.7 nM; that for `N#Cc1ccc(Nc2ncc(C(F)(F)F)c(NCCN)n2)cn1` was 217 nM.
With `N#Cc1ccc(Nc2ncc(C(F)(F)F)c(NCCCNCC(O)CO)n2)cn1` (stereo not given), the IC50 in data set [1] is 152 nM.
The same measure, in the same setting: then `N#Cc1ccc(Nc2ncc(C(F)(F)F)c(NCC3CCCNC3)n2)cn1` (racemic), with 62.6 nM.
Same read-out and setting: the value for `N#Cc1ccc(Nc2ncc(C(F)(F)F)c(N[C@H]3CCNC3)n2)cn1` was 214 nM; that for `CNc1nc(Nc2cnc(C#N)c(OCC3CCNCC3)c2)ncc1C(F)(F)F` was 213 nM; that for `CNc1nc(Nc2cnc(C#N)c(N[C@H]3CCNC3)c2)ncc1C(F)(F)F` was 59.5 nM.
In the case of `N#Cc1ccc(Nc2ncc(C(F)(F)F)c(NC[C@@H]3CCNC3)n2)cn1`, the values for the IC50 (in the data set on MV4-11; with Z-138; in data set [1]) were 200 nM, 1170 nM and 40.3 nM, respectively.
With `N#Cc1ccc(Nc2ncc(C(F)(F)F)c(NCCCNCCN3CCOCC3)n2)cn1`, the half-maximal inhibitory concentration (IC50) in data set [1] came out at 1610 nM.
On to `CNc1nc(Nc2cnc(C#N)c(NCC3CCCCN3)c2)ncc1C(F)(F)F` (stereo not given), for which the values for the IC50 (in the data set with MV4-11; in the data set with Z-138; in data set [1]) were 160 nM, 210 nM and 46.9 nM, respectively.
Consider `N#Cc1ccc(Nc2ncc(C(F)(F)F)c(NCCCNC3CCC3)n2)cn1`, for which the IC50 in data set [1] was 1490 nM.
On the same count and under the same terms, the value for `N#Cc1ncc(Nc2ncc(C(F)(F)F)cn2)cc1O[C@@H]1CCCNC1` was 1010 nM; that for `N#Cc1ccc(Nc2ncc(C(F)(F)F)c(N[C@@H]3CCCNC3)n2)cn1` was 831 nM.
On to `CNc1nc(Nc2cnc(C#N)c(NC[C@@H]3CCNC3)c2)ncc1C(F)(F)F`, for which the IC50 in the data set with MV4-11 came to 140 nM; with Z-138, 270 nM; in data set [1], 20.2 nM. Further, the inhibition at 10 µM against hERG (KCNH2) was 2.4%.
On the same counts, the results for `CNc1nc(Nc2cnc(C#N)c(N[C@@H]3CCCNC3)c2)ncc1C(F)(F)F` are 50 nM, 720 nM, 12.2 nM and 81.1%.
The corresponding values for `CC(N)CCNc1nc(Nc2ccc(C#N)nc2)ncc1C(F)(F)F` (racemic) are 390 nM, 5700 nM, 26.9 nM and 31.6%.
Consider `CC(C)NCCCNc1nc(Nc2ccc(C#N)nc2)ncc1C(F)(F)F`, for which the IC50 in data set [1] stood at 1980 nM.
The same measure, in the same setting: the value for `N#Cc1ccc(Nc2ncc(C(F)(F)F)c(NC3CN4CCC3CC4)n2)cn1` (stereo not given) was 307 nM; that for `N#Cc1ccc(Nc2ncc(C(F)(F)F)c(NCCCNC3CC3)n2)cn1` was 270 nM; that for `CNc1nc(Nc2cnc(C#N)c(NC[C@@H]3CCCNC3)c2)ncc1C(F)(F)F` was 110 nM.
Still for that read-out and setting: the value for `CNc1nc(Nc2cnc(C#N)c(O[C@H]3CCCNC3)c2)ncc1C(F)(F)F` was 355 nM; that for `N#Cc1ccc(Nc2ncc(C(F)(F)F)c(NC3CCCNC3)n2)cn1` (racemic) was 69.5 nM.
As for `CNc1nc(Nc2cnc(C#N)c(O[C@@H]3CCNC3)c2)ncc1C(F)(F)F`, the IC50 with MV4-11 worked out at 430 nM; in the data set on Z-138 it was 1410 nM; in data set [1] it was 21.3 nM.
As to `CC(C)(CN)CNc1nc(Nc2ccc(C#N)nc2)ncc1C(F)(F)F`, the IC50 in data set [1] was found to be 220 nM.
Same read-out and setting: then `CNc1nc(Nc2cnc(C#N)c(N[C@@H]3CCN(C)C3)c2)ncc1C(F)(F)F`, with 119 nM.
Take `CNc1nc(Nc2cnc(C#N)c(NCCN)c2)ncc1C(F)(F)F`: the half-maximal inhibitory concentration (IC50) stood at 210 nM in the data set with MV4-11, 400 nM in the data set on Z-138 and 19.1 nM in data set [1]. Moreover, at 10 µM the inhibition at hERG (KCNH2) was 9%.
As to `N#Cc1ccc(Nc2ncc(C(F)(F)F)c(NCCCNC3CCCC3)n2)cn1`, in data set [1], the IC50 is 5500 nM.
As to `N#Cc1ccc(Nc2ncc(C(F)(F)F)c(NC[C@H]3CNCCO3)n2)cn1`, the IC50 is 400 nM in the data set with MV4-11, 1130 nM in the data set on Z-138 and 37.3 nM in data set [1]. The inhibition at 10 µM at hERG (KCNH2) turned out to be 31.3%.
For `CNc1nc(Nc2cnc(C#N)c(OC[C@@H]3CCCNC3)c2)ncc1C(F)(F)F`, in data set [1], the IC50 is 244 nM.
`N#Cc1ccc(Nc2ncc(C(F)(F)F)c(NC[C@@H]3CCCNC3)n2)cn1`: the IC50 with MV4-11 was 300 nM; in the data set with Z-138, 1190 nM; in data set [1], 23.8 nM. In addition, the inhibition at 10 µM at hERG (KCNH2) was 41.1%.
For `CNc1nc(Nc2cnc(C#N)c(OCCCN)c2)ncc1C(F)(F)F`, in data set [1], the IC50 turned out to be 78 nM.
Still for that read-out and setting: the value for `N#Cc1ccc(Nc2ncc(C(F)(F)F)c(NC[C@H]3CCCNC3)n2)cn1` was 111 nM.
Turning to `CNc1nc(Nc2cnc(C#N)c(NCCN(C)C)c2)ncc1C(F)(F)F`, the half-inhibitory concentration (IC50) was found to be 260 nM in the data set with MV4-11, 290 nM in the data set on Z-138 and 34 nM in data set [1].
The corresponding values for `CNc1nc(Nc2cnc(C#N)c(OC3CCNCC3)c2)ncc1C(F)(F)F` are 240 nM, 440 nM and 32.7 nM.
Regarding `N#Cc1ccc(Nc2ncc(C(F)(F)F)c(NCC3CCCCN3)n2)cn1` (racemic), in data set [1], the IC50 is 993 nM.
Consider `CNc1nc(Nc2cnc(C#N)c(NC3CCNCC3)c2)ncc1C(F)(F)F`, for which the IC50 in data set [1] is 101 nM.
On to `CNc1nc(Nc2cnc(C#N)c(N[C@H]3CC[C@@H](N)CC3)c2)ncc1C(F)(F)F`, for which the figures for the IC50 (with MV4-11; with Z-138; in data set [1]) were 10 nM, 50 nM and 8.5 nM, respectively. Also, 10 µM produced 84.2% inhibition against hERG (KCNH2).
Regarding `N#Cc1ccc(Nc2ncc(C(F)(F)F)c(NCCCNC=O)n2)cn1`, the IC50 in data set [1] was 441 nM.
Compound `N#Cc1ccc(Nc2ncc(C(F)(F)F)c(N[C@H]3CC[C@@H](N)CC3)n2)cn1` gave an inhibition at 10 µM against hERG (KCNH2) of 36.8%. In data set [1], the half-maximal inhibitory concentration (IC50) came to 44.2 nM.
For the compound `CNc1nc(Nc2cnc(C#N)c(NCCCN)c2)ncc1C(F)(F)F`, the IC50 in data set [1] was 51.1 nM.
As to `CNCCNc1cc(Nc2ncc(C(F)(F)F)c(NC)n2)cnc1C#N`, the results for the IC50 (with MV4-11; in the data set with Z-138; in data set [1]) were 180 nM, 270 nM and 27.9 nM, respectively. Moreover, on hERG (KCNH2), testing at 10 µM gave an inhibition of 46.4%.
For the compound `COCCNCCCNc1nc(Nc2ccc(C#N)nc2)ncc1C(F)(F)F`, in data set [1], the IC50 amounted to 577 nM.
Still for that read-out and setting: then `N#Cc1ccc(Nc2ncc(C(F)(F)F)c(NCCCCN)n2)cn1`, with 88.4 nM; and `CN(C)CCCNc1nc(Nc2ccc(C#N)nc2)ncc1C(F)(F)F`, with 458 nM.
The same measure, in the same setting: then `CNc1nc(Nc2cnc(C#N)c(O[C@H]3CCNC3)c2)ncc1C(F)(F)F`, with 45 nM; and `N#Cc1ccc(Nc2ncc(C(F)(F)F)c(NCCCNC3CCCCC3)n2)cn1`, with 2260 nM.
Still for that read-out and setting: then `CNc1nc(Nc2cnc(C#N)c(NC3CN4CCC3CC4)c2)ncc1C(F)(F)F` (stereo not given), with 608 nM; and `N#Cc1ccc(Nc2ncc(C(F)(F)F)c(NCCCNCCC(N)=O)n2)cn1`, with 107 nM.
`N#Cc1ccc(Nc2ncc(C(F)(F)F)c(NCCCNCCO)n2)cn1` registered an inhibition at 10 µM at hERG (KCNH2) of 35.2%. Further, the IC50 in data set [1] amounted to 217 nM.
Turning to `N#Cc1ccc(Nc2ncc(C(F)(F)F)c(NC3CC4CCC(C3)N4)n2)cn1` (stereo not given), the IC50 in data set [1] was determined as 624 nM.
For the compound `CN1CCC(CNc2nc(Nc3ccc(C#N)nc3)ncc2C(F)(F)F)CC1`, in data set [1], the IC50 came to 185 nM.
Same read-out and setting: then `N#Cc1ccc(Nc2ncc(C(F)(F)F)c(NCC3CCNCC3)n2)cn1`, with 65.5 nM; and `N#Cc1ccc(Nc2ncc(C(F)(F)F)c(NC3CCNCC3)n2)cn1`, with 120 nM.

As usually defined, the IC50 is the concentration that gives 50% inhibition. As a reminder, the inhibition is the percentage by which the read-out fell short of the control. A high value points to a response far below the control.
